Reference: patent US20140249135A1, “PIM KINASE INHIBITORS AND METHODS OF THEIR USE” (NOVARTIS AG, priority 2007, published 2014)
Read-outs that look alike come from different tables or passages of the source.

Legend:
Format in all cases: biochemical
Pim1 kinase = Pim1 kinase (Homo sapiens, UniProt P11309); assay: Pim1 ATP depletion assay;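 further: Luciferase-luciferin luminescence readout of residual ATP after PIM1 transfers phosphate to a peptide substrate, 40 µM ATP added, reaction run to roughly half ATP consumption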
Pim2 kinase = Pim2 kinase (Homo sapiens, UniProt Q9P1W9); assay: Pim2 ATP depletion assay; settings: read-out: PIM2 IC50;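 further: Luciferase-based luminescent readout of ATP remaining after PIM2 phosphorylates a BAD peptide, final 5 nM enzyme, 4 µM ATP, 10 µM peptide, 2.5% DMSO, run to roughly half ATP consumption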
Pim3 kinase = Pim3 kinase (Homo sapiens, UniProt Q86V86); assay: Pim3 ATP depletion assay; settings: read-out: PIM3 IC50
[1] = Pim1 ATP depletion assay, read-out: PIM1 IC50

Measured: IC50

Chain of Pim2 kinase (Q9P1W9 whole entry): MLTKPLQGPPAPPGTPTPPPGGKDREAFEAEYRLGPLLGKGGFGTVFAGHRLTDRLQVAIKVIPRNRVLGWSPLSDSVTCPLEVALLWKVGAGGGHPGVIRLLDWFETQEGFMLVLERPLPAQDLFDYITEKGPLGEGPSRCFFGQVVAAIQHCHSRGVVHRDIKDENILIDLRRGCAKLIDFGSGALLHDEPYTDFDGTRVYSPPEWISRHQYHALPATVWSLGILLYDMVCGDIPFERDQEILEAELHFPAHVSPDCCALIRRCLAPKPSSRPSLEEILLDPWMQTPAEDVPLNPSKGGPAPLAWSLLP
Chain of Pim1 kinase (P11309 whole entry): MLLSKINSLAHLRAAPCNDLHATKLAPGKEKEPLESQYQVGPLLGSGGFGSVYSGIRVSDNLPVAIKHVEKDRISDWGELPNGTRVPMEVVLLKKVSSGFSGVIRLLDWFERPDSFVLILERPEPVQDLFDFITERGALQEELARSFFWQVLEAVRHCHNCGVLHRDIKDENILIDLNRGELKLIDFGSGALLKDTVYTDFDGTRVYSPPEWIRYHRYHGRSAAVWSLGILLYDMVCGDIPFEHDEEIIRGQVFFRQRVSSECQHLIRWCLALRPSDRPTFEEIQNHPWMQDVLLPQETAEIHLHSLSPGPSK

Nc1ccc(-c2ccccc2F)nc1C(=O)Nc1cnccc1N1CCCC(O)C1 (stereo not drawn) [Example 661, 3-Amino-6-(2-fluoro-phenyl)-pyridine-2-carboxylic acid (3-hydroxy-3,4,5,6-tetrahydro-2H-[1,4′]bipyridinyl-3′-yl)-amide]
< 1000 nM: Pim1 kinase; [1] | Pim2 kinase | Pim3 kinase

CC(C)Oc1ccc(F)c(-c2nc(C(=O)Nc3cnccc3N3CC[C@@H](O)[C@H](N)C3)c(N)cc2F)c1F [Example 664, 3-Amino-6-(2,6-difluoro-3-isopropoxy-phenyl)-5-fluoro-pyridine-2-carboxylic acid (3-amino-4-hydroxy-3,4,5,6-tetra-hydro-2H-[1,4′]bipyridinyl-3′-yl)-amide]
< 1000 nM: Pim1 kinase; [1] | Pim2 kinase | Pim3 kinase

CC(C)Oc1ccc(F)c(-c2nc(C(=O)Nc3cnccc3N3CC[C@@H](N)[C@H](O)C3)c(N)cc2F)c1F [Example 666, 3-Amino-6-(2,6-difluoro-3-isopropoxy-phenyl)-5-fluoro-pyridine-2-carboxylic acid (4-amino-3-hydroxy-3,4,5,6-tetra-hydro-2H-[1,4′]bipyridinyl-3′-yl)-amide]
< 1000 nM: Pim1 kinase; [1] | Pim2 kinase | Pim3 kinase

CC(C)NC(=O)c1ccc(F)c(-c2ccc(N)c(C(=O)Nc3cnccc3N3CC[C@@H](N)[C@H](O)C3)n2)c1 [Example 668, 3-Amino-6-(2-fluoro-5-isopropylcarbamoyl-phenyl)-pyridine-2-carboxylic acid (4-amino-3-hydroxy-3,4,5,6-tetra-hydro-2H-[1,4′]bipyridinyl-3′-yl)-amide]
< 1000 nM: Pim1 kinase; [1] | Pim2 kinase | Pim3 kinase

Nc1ccc(-c2nccs2)nc1C(=O)Nc1cnccc1N1CC[C@@H](O)[C@H](N)C1 [Example 669, 3-Amino-6-thiazol-2-yl-pyridine-2-carboxylic acid (3-amino-4-hydroxy-3,4,5,6-tetra-hydro-2H-[1,4′]bipyridinyl-3′-yl)-amide]
< 1000 nM: Pim1 kinase; [1] | Pim2 kinase | Pim3 kinase

CC(C)NC(=O)c1ccc(F)c(-c2ccc(N)c(C(=O)Nc3cnccc3N3CC[C@@H](O)[C@H](N)C3)n2)c1 [Example 671, 3-Amino-6-(2-fluoro-5-isopropylcarbamoyl-phenyl)-pyridine-2-carboxylic acid (3-amino-4-hydroxy-3,4,5,6-tetra-hydro-2H-[1,4′]bipyridinyl-3′-yl)-amide]
< 1000 nM: Pim1 kinase; [1] | Pim2 kinase | Pim3 kinase

Nc1ccc(-c2c(F)cccc2F)nc1C(=O)Nc1cnccc1N1C[C@@H](N)C[C@@H](O)C1 [Example 672, 3-Amino-6-(2,6-difluoro-phenyl)-pyridine-2-carboxylic acid (3-amino-5-hydroxy-3,4,5,6-tetrahydro-2H-[1,4′]bi-pyridinyl-3′-yl)-amide]
< 1000 nM: Pim1 kinase; [1] | Pim2 kinase | Pim3 kinase

CC1(N)CCCN(c2ccncc2NC(=O)c2nc(-c3c(F)cccc3F)ncc2N)C1 (stereo not drawn) [Example 673, 5-Amino-2-(2,6-difluoro-phenyl)-pyrimidine-4-carboxylic acid (3-amino-3-methyl-3,4,5,6-tetrahydro-2H-[1,4′]bipyridinyl-3′-yl)-amide]
< 1000 nM: Pim1 kinase; [1] | Pim2 kinase | Pim3 kinase

CC1(N)CCCN(c2ccncc2NC(=O)c2nc(-c3ccccc3F)ccc2N)C1 (stereo not drawn) [Example 674, 3-Amino-6-(2-fluoro-phenyl)-pyridine-2-carboxylic acid (3-amino-3-methyl-3,4,5,6-tetra-hydro-2H-[1,4′]bipyridinyl-3′-yl)-amide]
< 1000 nM: Pim1 kinase; [1] | Pim2 kinase | Pim3 kinase

CC(C)NC(=O)c1ccc(F)c(-c2ccc(N)c(C(=O)Nc3cnccc3N3CCCC(C)(N)C3)n2)c1 (stereo not drawn) [Example 675, 3-Amino-6-(2-fluoro-5-isopropylcarbamoyl-phenyl)-pyridine-2-carboxylic acid (3-amino-3-methyl-3,4,5,6-tetra-hydro-2H-[1,4′]bipyridinyl-3′-yl)-amide]
< 1000 nM: Pim1 kinase; [1] | Pim2 kinase | Pim3 kinase

CC1(N)CCCN(c2ccncc2NC(=O)c2nc(-c3ccccc3F)ncc2N)C1 (stereo not drawn) [Example 676, 5-Amino-2-(2-fluoro-phenyl)-pyrimidine-4-carboxylic acid (3-amino-3-methyl-3,4,5,6-tetrahydro-2H-[1,4′]bi-pyridinyl-3′-yl)-amide]
< 1000 nM: Pim1 kinase; [1] | Pim2 kinase | Pim3 kinase

CC(C)NC(=O)c1ccc(F)c(-c2ccc(N)c(C(=O)Nc3cnccc3N3C[C@@H](N)C[C@@H](O)C3)n2)c1 [Example 677, 3-Amino-6-(2-fluoro-5-isopropylcarbamoyl-phenyl)-pyridine-2-carboxylic acid (3-amino-5-hydroxy-3,4,5,6-tetra-hydro-2H-[1,4′]bipyridinyl-3′-yl)-amide]
< 1000 nM: Pim1 kinase; [1] | Pim2 kinase | Pim3 kinase

Nc1ccc(-c2ccccc2F)nc1C(=O)Nc1cnccc1N1C[C@@H](N)C[C@@H](O)C1 [Example 678, 3-Amino-6-(2-fluoro-phenyl)-pyridine-2-carboxylic acid (5-amino-3-hydroxy-3,4,5,6-tetra-hydro-2H-[1,4′]bipyridinyl-3′-yl)-amide]
< 1000 nM: Pim1 kinase; [1] | Pim2 kinase | Pim3 kinase

Nc1ccc(-c2c(F)cccc2F)nc1C(=O)Nc1cnccc1N1CC[C@H](O)[C@@H](N)C1 [Example 680, 3-Amino-6-(2,6-difluoro-phenyl)-pyridine-2-carboxylic acid (3-amino-4-hydroxy-3,4,5,6-tetrahydro-2H-[1,4′]bi-pyridinyl-3′-yl)-amide]
< 1000 nM: Pim1 kinase | Pim2 kinase | Pim3 kinase

N[C@@H]1CN(c2ccncc2NC(=O)c2ccc(F)c(-c3ccccc3)n2)CC[C@H]1O [Example 681, 5-Fluoro-6-phenyl-pyridine-2-carboxylic acid (3-amino-4-hydroxy-3,4,5,6-tetrahydro-2H-[1,4′]bipyridinyl-3′-yl)-amide]
< 1000 nM: Pim1 kinase; [1] | Pim2 kinase | Pim3 kinase

N[C@@H]1CN(c2ccncc2NC(=O)c2ccc(F)c(-c3ccccc3F)n2)CC[C@H]1O [Example 682, 5-Fluoro-6-(2-fluoro-phenyl)-pyridine-2-carboxylic acid (3-amino-4-hydroxy-3,4,5,6-tetra-hydro-2H-[1,4′]bipyridinyl-3′-yl)-amide]
< 1000 nM: Pim1 kinase; [1] | Pim2 kinase | Pim3 kinase

N[C@H]1C[C@@H](O)CN(c2ccncc2NC(=O)c2ccc(F)c(-c3ccccc3F)n2)C1 [Example 684, 5-Fluoro-6-(2-fluoro-phenyl)-pyridine-2-carboxylic acid (5-amino-3-hydroxy-3,4,5,6-tetra-hydro-2H-[1,4′]bipyridinyl-3′-yl)-amide]
< 1000 nM: Pim1 kinase; [1] | Pim2 kinase | Pim3 kinase

N#Cc1ccc(-c2ccc(N)c(C(=O)Nc3cnccc3N3CCC[C@H](N)C3)n2)c(F)c1 [Example 686, 3-Amino-6-(4-cyano-2-fluoro-phenyl)-pyridine-2-carboxylic acid (3-amino-3,4,5,6-tetra-hydro-2H-[1,4′]bipyridinyl-3′-yl)-amide]
< 1000 nM: Pim1 kinase; [1] | Pim2 kinase | Pim3 kinase

CC(C)/C=C\c1ccc(F)c(-c2ccc(N)c(C(=O)Nc3cnccc3N3CCC[C@H](N)C3)n2)c1 [Example 687, 3-Amino-6-[2-fluoro-5-(3-methyl-but-1-enyl)-phenyl]-pyridine-2-carboxylic acid (3-amino-3,4,5,6-tetrahydro-2H-[1,4′]bipyridinyl-3′-yl)-amide]
< 1000 nM: Pim1 kinase; [1] | Pim2 kinase | Pim3 kinase

Nc1ccc(-c2cncs2)nc1C(=O)Nc1cnccc1N1CCC[C@H](N)C1 [Example 688, 3-Amino-6-thiazol-5-yl-pyridine-2-carboxylic acid (3-amino-3,4,5,6-tetrahydro-2H-[1,4′]bipyridinyl-3′-yl)-amide]
< 1000 nM: Pim1 kinase; [1] | Pim2 kinase | Pim3 kinase

CC(C)N(C)C(=O)c1ccc(F)c(-c2ccc(N)c(C(=O)Nc3cnccc3N3CCC[C@H](N)C3)n2)c1F [Example 689, 3-Amino-6-[2,6-difluoro-3-(isopropyl-methyl-carbamoyl)-phenyl]-pyridine-2-carboxylic acid (3-amino-3,4,5,6-tetra-hydro-2H-[1,4′]bipyridinyl-3′-yl)-amide]
< 1000 nM: Pim1 kinase; [1] | Pim2 kinase | Pim3 kinase

Nc1ccc(-c2ncccc2F)nc1C(=O)Nc1cnccc1N1CCC[C@H](O)C1 [Example 690, 5-Amino-3′-fluoro-[2,2′]bi-pyridinyl-6-carboxylic acid (3-hydroxy-3,4,5,6-tetrahydro-2H-[1,4′]bipyridinyl-3′-yl)-amide]
< 1000 nM: Pim1 kinase; [1] | Pim2 kinase | Pim3 kinase

NC(=O)c1ccc(-c2ccc(N)c(C(=O)Nc3cnccc3N3CCC[C@H](N)C3)n2)nc1 [Example 691, 5′-Amino[2,2′]bipyridinyl-5,6′-dicarboxylic acid 5-amide 6′-[(3-amino-3,4,5,6-tetrahydro-2H-[1,4′]bipyridinyl-3′-yl)-amide]]
< 1000 nM: Pim1 kinase; [1] | Pim2 kinase | Pim3 kinase
